Measurements as given in the Kinase Knowledgebase extract (Sharma et al. 2016).

Target: MAPK14 (human) (UniProt Q16539)
Experiment: Inhibition of MAPK14 Kinase Activity
Settings: for inhibition: concentration not given here

MAPK14 (human), sequence (Q16539 whole entry, looked up): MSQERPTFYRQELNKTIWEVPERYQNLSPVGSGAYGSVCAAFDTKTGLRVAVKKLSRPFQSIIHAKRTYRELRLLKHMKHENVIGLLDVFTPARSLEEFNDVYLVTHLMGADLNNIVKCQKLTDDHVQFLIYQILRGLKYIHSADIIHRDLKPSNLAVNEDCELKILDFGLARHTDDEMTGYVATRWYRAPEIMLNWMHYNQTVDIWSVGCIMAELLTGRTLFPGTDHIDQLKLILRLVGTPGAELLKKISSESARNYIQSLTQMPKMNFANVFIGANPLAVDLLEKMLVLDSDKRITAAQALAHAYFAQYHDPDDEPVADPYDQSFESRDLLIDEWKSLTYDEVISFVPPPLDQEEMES

SMILES	IC50 [µM]	inhibition [%]
CC(C)(C)c1cc(C(=O)N2CCN(C(=O)N3CCOCC3)CC2)c(NC(=O)Nc2cccc(Cl)c2Cl)s1	< 5	
Cc1cccc(NC(=O)Nc2sc(C(C)(C)C)cc2C(=O)N2CCNS(=O)(=O)CC2)c1		76 to 100
COC(=O)CCN1CCN(C(=O)c2cc(C(C)(C)C)sc2NC(=O)Nc2cccc(Cl)c2Cl)C(C)(C)C1=O	< 5	
CC(C)(C)c1cc(C(=O)N2CCNC(=O)CC2)c(NC(=O)Nc2ccc(Cl)c(Cl)c2Cl)s1	< 5	
CC(C)(C)c1cc(NC(=O)Nc2ccc(F)c(Cl)c2Cl)c(C(=O)N2CCNC(=O)C2(C)C)o1	< 5	
CC(C)(C)c1cc(C(=O)N2CC(=O)NC(CO)C2)c(NC(=O)Nc2cccc(Cl)c2Cl)s1 (stereo not drawn)	< 5	
CC(C)(C)c1cc(C(=O)N2CCNC(=O)C2)c(NC(=O)Nc2cccc3c2OCO3)s1	< 5	
CC(C)(C)c1cc(C(=O)N2CCN(CCC(=O)N(CCO)CCO)C(=O)C2(C)C)c(NC(=O)Nc2cccc(Cl)c2Cl)s1	< 5	
CC(C)(C)c1cc(C(=O)N2CCNC(=O)CC2)c(NC(=O)Nc2cc(Cl)cc(Cl)c2)s1		76 to 100
CC(C)(C)c1cc(C(=O)N2CCN(CC(=O)NCC(O)CO)C(=O)C2(C)C)c(NC(=O)Nc2cccc(Cl)c2Cl)s1 (stereo not drawn)	< 5	
CCC1(C)C(=O)N(CC(=O)N2CCN(C)CC2)CCN1C(=O)c1cc(C(C)(C)C)sc1NC(=O)Nc1cccc(Cl)c1Cl (stereo not drawn)	< 5	
CC(C)(C)c1cc(C(=O)N2CCNC(=O)C2(C)C)c(NC(=O)Nc2ccc(Cl)cc2Cl)s1	< 5	
COC(=O)c1ccc(NC(=O)Nc2sc(C(C)(C)C)cc2C(=O)N2CCNC(=O)CC2)c(Cl)c1Cl	< 5	
CN(C)CCN1CCN(C(=O)c2sc(C(C)(C)C)cc2NC(=O)Nc2cccc(Cl)c2Cl)C(C)(C)C1=O	< 5	
CC(C)(C)c1cc(NC(=O)Nc2cccc(Cl)c2Cl)c(C(=O)N2CCNC(=O)CC2)s1		76 to 100
CC(C)(C)c1cc(C(=O)N2CCNS(=O)(=O)CC2)c(NC(=O)Nc2cnc(O)c3ccccc23)s1		26 to 50
CN(C)CCNC(=O)CN1CCN(C(=O)c2cc(C(C)(C)C)sc2NC(=O)Nc2ccc(F)c(F)c2Cl)CCC1=O	< 5	
CN(C)CCN1CCN(C(=O)c2cc(C(C)(C)C)sc2NC(=O)Nc2ccc(F)c(Cl)c2Cl)C(C)(C)C1=O	< 5	
CC(C)(C)c1cc(C(=O)N2CCNC(=O)C2(C)CCO)c(NC(=O)Nc2ccc(F)c(Cl)c2Cl)s1 (stereo not drawn)	< 5	
CC(C)(C)c1cc(C(=O)N2CCNC(=O)C2(C)CC(=O)O)c(NC(=O)Nc2cccc(Cl)c2Cl)s1 (stereo not drawn)	< 5	
COC(=O)CC1(C)C(=O)NCCN1C(=O)c1cc(C(C)(C)C)sc1NC(=O)Nc1ccc(F)c(Cl)c1Cl (stereo not drawn)	< 5	

SMILES	IC50 [µM]	inhibition [%]
COC(=O)CC1(C)C(=O)NCCN1C(=O)c1sc(C(C)(C)C)cc1NC(=O)Nc1ccc(F)c(F)c1Cl (stereo not drawn)	< 5	
COC(=O)CC1C(=O)NCCN1C(=O)c1cc(C(C)(C)C)sc1NC(=O)Nc1ccc2ccccc2c1 (stereo not drawn)		76 to 100
Cc1noc(CN2CCN(C(=O)c3cc(C(C)(C)C)sc3NC(=O)Nc3cccc(Cl)c3Cl)C(C)(CC(N)=O)C2=O)n1 (stereo not drawn)	< 5	
Cc1cccc(Cl)c1NC(=O)Nc1cc(C(C)(C)C)sc1C(=O)N1CCNC(=O)C1(C)C	< 5	
CC(C)(C)c1cc(C(=O)N2CCNC(=O)C2(C)C)c(NC(=O)Nc2ccc3c(c2Cl)OCO3)s1	< 5	
COc1ccccc1NC(=O)Nc1sc(C(C)(C)C)cc1C(=O)N1CCC(=O)N(CCN(C)C)CC1	< 5	
COc1c(Cl)cccc1NC(=O)Nc1sc(C(C)(C)C)cc1C(=O)N1CCNC(=O)C1(C)CCO (stereo not drawn)	< 5	
CC(C)(C)c1cc(C(=O)N2CCNC(=O)CC2)c(NC(=O)Nc2ccc(O)c(Cl)c2Cl)s1	< 5	
CN1CCN(C(=O)c2cc(C(C)(C)C)sc2NC(=O)Nc2cccc(Cl)c2Cl)C(C)(CC(N)=O)C1=O (stereo not drawn)	< 5	
COCCN1CCN(C(=O)c2cc(C(C)(C)C)sc2NC(=O)Nc2cccc(Cl)c2Cl)CCC1=O		76 to 100
CC1(C)OCC(CN2CCN(C(=O)c3nc(C(C)(C)C)sc3NC(=O)Nc3cccc(Cl)c3Cl)CCC2=O)O1 (stereo not drawn)	< 5	
CN1CCN(C(=O)c2cc(C(C)(C)C)sc2NC(=O)Nc2cccc(Cl)c2Cl)C(C)(C)C1=O	< 5	
COCCOCCN1CCN(C(=O)c2cc(C(C)(C)C)sc2NC(=O)Nc2cccc(Cl)c2Cl)CCC1=O		76 to 100
CC(C)(C)c1cc(C(=O)N2CCC(=O)N(CCc3nnn[nH]3)CC2)c(NC(=O)Nc2cccc(Cl)c2Cl)s1	< 5	
CC(C)(C)c1cc(C(=O)N2CCNC(=O)CC2)c(NC(=O)Nc2ccccc2I)s1	< 5	
COc1cccc(NC(=O)Nc2sc(C(C)(C)C)cc2C(=O)N2CCC(=O)N(CCN(C)C)CC2)c1Cl	< 5	
CC(C)(C)c1cc(C(=O)N2CCNC(=O)C2(C)CCO)c(NC(=O)Nc2cccc(Cl)c2Cl)s1 (stereo not drawn)	< 5	
CC(C)(C)c1cc(C(=O)N2CCNC(=O)C2(C)C)c(NC(=O)Nc2ccccc2C(C)(C)C)s1	< 5	
CC(C)(C)c1cc(C(=O)N2CCNS(=O)(=O)CC2)c(NC(=O)Nc2ccc(C#N)c(Cl)c2)s1		76 to 100
CC(C)(C)c1cc(C(=O)N[C@@H]2CC(=O)NC2=O)c(NC(=O)Nc2ccc3ccccc3c2)s1		76 to 100
CC(C)(C)c1cc(C(=O)N2CCNC(=O)C2(C)C)c(NC(=O)Nc2ccc(F)cc2Cl)s1	< 5	

SMILES	IC50 [µM]	inhibition [%]
CC(C)(C)c1cc(C(=O)N2CCN(CC(=O)NCC(F)(F)F)C(=O)C2(C)C)c(NC(=O)Nc2cccc(Cl)c2Cl)s1	< 5	
CN(C)CCN1CCN(C(=O)c2oc(C(C)(C)C)cc2NC(=O)Nc2cccc(Cl)c2Cl)CCS1(=O)=O	< 5	
CCC(C)(C)c1cc(NC(=O)Nc2cccc(Cl)c2Cl)c(C(=O)N2CCNC(=O)C2(C)C)[nH]1	< 5	
CC(C)(C)c1cc(C(=O)N2CCNC(=O)CC2)c(NC(=O)Nc2ccccc2C(C)(C)C)s1	< 5	
CC(C)(C)c1cc(C(=O)N2CCN(CCO)C(=O)C2(C)C)c(NC(=O)Nc2cccc(Cl)c2Cl)s1	< 5	
CC(C)(C)c1cc(C(=O)N2CCNC(=O)C2(C)C)c(NC(=O)Nc2ccccc2Cl)s1	< 5	
CC(C)(C)c1cc(C(=O)N2CCNCC2)c(NC(=O)Nc2cccc(Cl)c2Cl)s1	< 5	
CCC1(C)C(=O)N(CC(=O)OC)CCN1C(=O)c1cc(C(C)(C)C)sc1NC(=O)Nc1cccc(Cl)c1Cl (stereo not drawn)	< 5	
CC(C)(C)c1cc(C(=O)N2CCNC(=O)C2(C)C)c(NC(=O)Nc2ccc3c(c2)OCO3)s1	< 5	
Cc1cccc(NC(=O)Nc2sc(C(C)(C)C)cc2C(=O)N2CCNC(=O)C2(C)C)c1Cl	< 5	
CC(C)(C)c1cc(C(=O)N2CCN(CC(N)=O)C(=O)C2(C)CC(N)=O)c(NC(=O)Nc2cccc(Cl)c2Cl)s1 (stereo not drawn)	< 5	
CC(C)(C)c1cc(C(=O)N2CCNS(=O)(=O)CC2)c(NC(=O)NC(C)(C)c2ccccc2)s1		51 to 75
CC(C)(C)c1cc(C(=O)N2CCNC(=O)CC2)c(NC(=O)Nc2ccc(F)cc2Cl)s1	< 5	
CC(C)(C)c1cc(C(=O)N2CCNC(=O)CC2)c(NC(=O)Nc2ccc(C#N)c(Cl)c2Cl)s1	< 5	
COc1ccc(Cl)c(NC(=O)Nc2cc(C(C)(C)C)sc2C(=O)N2CCNC(=O)C2(C)C)c1	< 5	
CC(C)(C)c1cc(C(=O)N2CCNC(=O)C23CCCC3)c(NC(=O)Nc2cccc(Cl)c2Cl)s1	< 5	
CC(C)(C)c1cc(C(=O)N2CCNC(=O)CC2)c(NC(=O)Nc2ccccc2Br)s1	< 5	
CC(C)(C)c1cc(C(=O)N2CCCN(S(C)(=O)=O)CC2)c(NC(=O)Nc2cccc(Cl)c2Cl)s1	< 5	
Cn1ccc(NC(=O)Nc2sc(C(C)(C)C)cc2C(=O)N2CCNS(=O)(=O)CC2)n1		26 to 50
CON(C)C(=O)CN1CCN(C(=O)c2cc(C(C)(C)C)sc2NC(=O)Nc2cccc(Cl)c2Cl)C(C)(C)C1=O	< 5	
CC(C)(C)c1cc(C(=O)N2CCN(S(C)(=O)=O)CC2)c(NC(=O)Nc2cccc(Cl)c2Cl)s1	< 5	

SMILES	IC50 [µM]	inhibition [%]
CC(C)(C)c1nc(C(=O)N2CCNC(=O)C2(C)C)c(NC(=O)Nc2ccc(F)c(Cl)c2Cl)s1	< 5	
Cc1cccc(NC(=O)Nc2sc(C(C)(C)C)cc2C(=O)N2CCN(CCN(C)C)C(=O)C2(C)C)c1Cl	< 5	
CC(C)(C)c1cc(NC(=O)Nc2cccc(Cl)c2Cl)c(C(=O)N2CCS(=O)(=O)CC2)o1	< 5	
CC1(C)CN(C(=O)c2cc(C(C)(C)C)sc2NC(=O)Nc2cccc(Cl)c2Cl)CCNC1=O	< 5	
CC(C)(C)c1cc(NC(=O)Nc2ccc(F)c(Cl)c2Cl)c(C(=O)N2CCNC(=O)C2(C)CCO)s1 (stereo not drawn)	< 5	
CC(C)(C)c1nc(C(=O)N2CCNC(=O)CC2)c(NC(=O)Nc2cccc(Cl)c2Cl)s1	< 5	
COC(=O)CC1CC(=O)NCCN1C(=O)c1cc(C(C)(C)C)sc1NC(=O)Nc1cccc(Cl)c1Cl (stereo not drawn)	< 5	
CCC1(C)C(=O)N(CC(=O)NCCN2CCOCC2)CCN1C(=O)c1cc(C(C)(C)C)sc1NC(=O)Nc1cccc(Cl)c1Cl (stereo not drawn)	< 5	
CC(C)(C)c1cc(C(=O)N2CCC(=O)N(CCN)CC2)c(NC(=O)Nc2cccc(Cl)c2Cl)s1	< 5	
CNC(=O)[C@@H]1CCCN1C(=O)c1cc(C(C)(C)C)sc1NC(=O)Nc1ccc(OC(F)F)c(Cl)c1Cl	< 5	
COC(=O)CC1(C)C(=O)NCCN1C(=O)c1[nH]c(C(C)(C)C)cc1NC(=O)Nc1ccc(F)c(Cl)c1Cl (stereo not drawn)	< 5	
COC(=O)CC1(C)C(=O)NCCN1C(=O)c1cc(C(C)(C)C)sc1NC(=O)Nc1cccc(Cl)c1Cl (stereo not drawn)	< 5	
CC(C)(C)OC(=O)N1CCN(C(=O)c2cc(C(C)(C)C)sc2NC(=O)Nc2cccc(Cl)c2Cl)CC1(C)C	< 5	
CN(C)CCCNC(=O)CN1CCN(C(=O)c2cc(C(C)(C)C)sc2NC(=O)Nc2cccc(Cl)c2Cl)C(C)(C)C1=O	< 5	
CN(C)CCN(C)C(=O)CN1CCN(C(=O)c2cc(C(C)(C)C)sc2NC(=O)Nc2cccc(Cl)c2Cl)C(C)(C)C1=O	< 5	
COc1ccc(NC(=O)Nc2sc(C(C)(C)C)cc2C(=O)N2CCNC(=O)CC2)c(Cl)c1Cl	< 5	
CC(C)(C)c1cc(C(=O)N2CCN(CCN3CCOCC3)C(=O)C2(C)C)c(NC(=O)Nc2cccc(Cl)c2Cl)s1	< 5	
CCC1(C)C(=O)N(CCN(C)C)CCN1C(=O)c1cc(C(C)(C)C)sc1NC(=O)Nc1ccc(F)c(Cl)c1Cl (stereo not drawn)	< 5	
CC(C)(C)c1cc(C(=O)N2CCNS(=O)(=O)CC2)c(NC(=O)Nc2ccc(C#N)cc2C(F)(F)F)s1		76 to 100
Cc1cccc(NC(=O)Nc2sc(C(C)(C)C)cc2C(=O)N2CCC(=O)N(CCN(C)C)CC2)c1Cl	< 5	
